Data: patent US8178570B2, “Tie-2 modulators and methods of use” (Exelixis, Inc., priority 2003, dated 2012)

Biological target: Tie-2 (Homo sapiens, UniProt Q02763)
Assay: Tie-2 tyrosine kinase activity: kinase-dependent ATP consumption (pEY substrate, luciferase/luciferin chemiluminescence) or 33P-ATP incorporation into substrate
Format: biochemical
Settings: Tie-2 (human enzyme) inhibition, Table 2, class symbols A-D
Summary of the method: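 Values are IC50 categories: A below 50 nM, B above 50 to 1000 nM, C above 1000 to below 10,000 nM, D 10,000 nM or more. They were measured by 33P-ATP phosphate transfer onto a generic substrate bound to the plate (scintillation), or by luminescent luciferase detection of ATP used with pEY.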

Chain of Tie-2 (Q02763 23-1124): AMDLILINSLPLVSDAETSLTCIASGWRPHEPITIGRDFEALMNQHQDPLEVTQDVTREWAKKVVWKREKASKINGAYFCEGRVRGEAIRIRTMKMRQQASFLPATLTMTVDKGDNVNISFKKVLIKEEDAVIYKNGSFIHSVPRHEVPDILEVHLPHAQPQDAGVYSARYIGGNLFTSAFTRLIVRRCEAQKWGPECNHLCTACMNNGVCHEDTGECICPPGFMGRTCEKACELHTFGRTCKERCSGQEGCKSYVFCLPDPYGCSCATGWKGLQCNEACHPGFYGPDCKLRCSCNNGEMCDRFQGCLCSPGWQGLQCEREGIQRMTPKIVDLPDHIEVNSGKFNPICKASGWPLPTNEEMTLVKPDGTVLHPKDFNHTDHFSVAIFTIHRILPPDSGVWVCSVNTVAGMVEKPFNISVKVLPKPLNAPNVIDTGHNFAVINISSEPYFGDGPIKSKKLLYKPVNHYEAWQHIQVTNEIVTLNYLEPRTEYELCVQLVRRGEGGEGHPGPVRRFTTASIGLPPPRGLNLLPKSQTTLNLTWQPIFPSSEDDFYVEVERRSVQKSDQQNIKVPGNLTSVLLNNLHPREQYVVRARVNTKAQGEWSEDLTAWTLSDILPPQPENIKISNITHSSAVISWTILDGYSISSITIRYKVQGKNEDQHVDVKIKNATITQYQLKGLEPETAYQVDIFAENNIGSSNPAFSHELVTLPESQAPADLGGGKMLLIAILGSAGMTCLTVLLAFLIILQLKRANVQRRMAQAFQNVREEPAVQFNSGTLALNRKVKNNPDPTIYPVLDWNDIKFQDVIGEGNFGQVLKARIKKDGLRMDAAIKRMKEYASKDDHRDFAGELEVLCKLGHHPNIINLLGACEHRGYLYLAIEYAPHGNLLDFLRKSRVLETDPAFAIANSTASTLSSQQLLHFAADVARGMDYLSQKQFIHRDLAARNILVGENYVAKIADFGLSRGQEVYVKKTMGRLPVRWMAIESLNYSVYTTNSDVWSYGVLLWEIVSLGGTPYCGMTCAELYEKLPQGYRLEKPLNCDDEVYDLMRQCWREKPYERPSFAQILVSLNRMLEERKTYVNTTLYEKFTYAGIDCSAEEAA

Compound	IC50
COc1ccc(-c2nc(-c3ccncc3)nn2CCN(C(=O)Nc2c(C)cccc2C(C)(C)C)C2CCCC2)cc1Cl [Entry 130, N-(2-{5-[3-chloro-4-(methyloxy)phenyl]-3-pyridin-4-yl-1H-1,2,4-triazol-1-yl}ethyl)-N-cyclopentyl-N′-[2-(1,1-dimethylethyl)-6-methylphenyl]urea]	≥ 10 µM
CCCCOc1ccc(NC(=O)N(CCn2nc(-c3ccncc3)nc2-c2ccc(OC)c(Cl)c2)C2CCCC2)cc1 [Entry 131, N′-[4-(butyloxy)phenyl]-N-(2-{5-[3-chloro-4-(methyloxy)phenyl]-3-pyridin-4-yl-1H-1,2,4-triazol-1-yl}ethyl)-N-cyclopentylurea]	≥ 10 µM
COc1ccc(-c2nc(-c3ccncc3)nn2CCN(C(=O)Nc2cccc([N+](=O)[O-])c2C)C2CCCC2)cc1Cl [Entry 132, N-(2-{5-[3-chloro-4-(methyloxy)phenyl]-3-pyridin-4-yl-1H-1,2,4-triazol-1-yl}ethyl)-N-cyclopentyl-N′-(2-methyl-3-nitrophenyl)urea]	≥ 10 µM
COc1ccc(-c2nc(-c3ccncc3)nn2CCN(C(=O)Nc2cc(Cl)ccc2Cl)C2CCCC2)cc1Cl [Entry 133, N-(2-{5-[3-chloro-4-(methyloxy)phenyl]-3-pyridin-4-yl-1H-1,2,4-triazol-1-yl}ethyl)-N-cyclopentyl-N′-(2,5-dichlorophenyl)urea]	≥ 10 µM
COc1ccc(-c2nc(-c3ccncc3)nn2CCN(C(=O)Nc2ccc(Cl)cc2)C2CCCC2)cc1Cl [Entry 135, N-(2-{5-[3-chloro-4-(methyloxy)phenyl]-3-pyridin-4-yl-1H-1,2,4-triazol-1-yl}ethyl)-N′-(4-chlorophenyl)-N-cyclopentylurea]	≥ 10 µM
COc1ccc(-c2nc(-c3ccncc3)nn2CCN(C(=O)Nc2ccc(C)cc2)C2CCCC2)cc1Cl [Entry 136, N-(2-{5-[3-chloro-4-(methyloxy)phenyl]-3-pyridin-4-yl-1H-1,2,4-triazol-1-yl}ethyl)-N-cyclopentyl-N′-(4-methylphenyl)urea]	≥ 10 µM
COc1ccc(-c2nc(-c3ccncc3)nn2CCN(C(=O)Nc2c(Cl)cc(Cl)cc2Cl)C2CCCC2)cc1Cl [Entry 137, N-(2-{5-[3-chloro-4-(methyloxy)phenyl]-3-pyridin-4-yl-1H-1,2,4-triazol-1-yl}ethyl)-N-cyclopentyl-N′-(2,4,6-trichlorophenyl)urea]	≥ 10 µM
COc1ccc(-c2nc(-c3ccncc3)nn2CCN(C(=O)Nc2cc(Cl)c(OC)cc2OC)C2CCCC2)cc1Cl [Entry 140, N′-[5-chloro-2,4-bis(methyloxy)phenyl]-N-(2-{5-[3-chloro-4-(methyloxy)phenyl]-3-pyridin-4-yl-1H-1,2,4-triazol-1-yl}ethyl)-N-cyclopentylurea]	≥ 10 µM
COc1ccc(-c2nc(-c3ccncc3)nn2CCN(C(=O)Nc2cc(Cl)cc(Cl)c2)C2CCCC2)cc1Cl [Entry 141, N-(2-{5-[3-chloro-4-(methyloxy)phenyl]-3-pyridin-4-yl-1H-1,2,4-triazol-1-yl}ethyl)-N-cyclopentyl-N′-(3,5-dichlorophenyl)urea]	≥ 10 µM
COc1ccc(-c2nc(-c3ccncc3)nn2CCN(C(=O)Nc2cc(Cl)ccc2OC)C2CCCC2)cc1Cl [Entry 142, N′-[5-chloro-2-(methyloxy)phenyl]-N-(2-{5-[3-chloro-4-(methyloxy)phenyl]-3-pyridin-4-yl-1H-1,2,4-triazol-1-yl}ethyl)-N-cyclopentylurea]	≥ 10 µM
COc1ccc(-c2nc(-c3ccncc3)nn2CCN(C(=O)Nc2cccc(SC)c2)C2CCCC2)cc1Cl [Entry 143, N-(2-{5-[3-chloro-4-(methyloxy)phenyl]-3-pyridin-4-yl-1H-1,2,4-triazol-1-yl}ethyl)-N-cyclopentyl-N′-[3-(methylthio)phenyl]urea]	≥ 10 µM
COc1ccc(-c2nc(-c3ccncc3)nn2CCN(C(=O)Nc2cc(C)cc(C)c2)C2CCCC2)cc1Cl [Entry 144, N-(2-{5-[3-chloro-4-(methyloxy)phenyl]-3-pyridin-4-yl-1H-1,2,4-triazol-1-yl}ethyl)-N-cyclopentyl-N′-(3,5-dimethylphenyl)urea]	≥ 10 µM
COc1ccc(-c2nc(-c3ccncc3)nn2CCN(C(=O)Nc2cc(C)ccc2OC)C2CCCC2)cc1Cl [Entry 145, N-(2-{5-[3-chloro-4-(methyloxy)phenyl]-3-pyridin-4-yl-1H-1,2,4-triazol-1-yl}ethyl)-N-cyclopentyl-N′-[5-methyl-2-(methyloxy)phenyl]urea]	≥ 10 µM
COc1ccc(-c2nc(-c3ccncc3)nn2CCN(C(=O)Nc2ccc(I)cc2)C2CCCC2)cc1Cl [Entry 146, N-(2-{5-[3-chloro-4-(methyloxy)phenyl]-3-pyridin-4-yl-1H-1,2,4-triazol-1-yl}ethyl)-N-cyclopentyl-N′-(4-iodophenyl)urea]	≥ 10 µM

More lines, now with the values ahead:

IC50	Compound
≥ 10 µM	COc1ccc(-c2nc(-c3ccncc3)nn2CCN(C(=O)Nc2c(F)cccc2F)C2CCCC2)cc1Cl [Entry 117, N-(2-{5-[3-chloro-4-(methyloxy)phenyl]-3-pyridin-4-yl-1H-1,2,4-triazol-1-yl}ethyl)-N-cyclopentyl-N′-(2,6-difluorophenyl)urea]
1 to 10 µM	COc1ccc(-c2nc(-c3ccncc3)nn2CCN(C(=O)Nc2ccccc2Cl)C2CCCC2)cc1Cl [Entry 118, N-(2-{5-[3-chloro-4-(methyloxy)phenyl]-3-pyridin-4-yl-1H-1,2,4-triazol-1-yl}ethyl)-N′-(2-chlorophenyl)-N-cyclopentylurea]
≥ 10 µM	COc1ccc(-c2nc(-c3ccncc3)nn2CCN(C(=O)Nc2cccc(Cl)c2Cl)C2CCCC2)cc1Cl [Entry 119, N-(2-{5-[3-chloro-4-(methyloxy)phenyl]-3-pyridin-4-yl-1H-1,2,4-triazol-1-yl}ethyl)-N-cyclopentyl-N′-(2,3-dichlorophenyl)urea]
≥ 10 µM	COc1ccc(OC)c(NC(=O)N(CCn2nc(-c3ccncc3)nc2-c2ccc(OC)c(Cl)c2)C2CCCC2)c1 [Entry 120, N′-[2,5-bis(methyloxy)phenyl]-N-(2-{5-[3-chloro-4-(methyloxy)phenyl]-3-pyridin-4-yl-1H-1,2,4-triazol-1-yl}ethyl)-N-cyclopentylurea]
1 to 10 µM	CCOc1ccccc1NC(=O)N(CCn1nc(-c2ccncc2)nc1-c1ccc(OC)c(Cl)c1)C1CCCC1 [Entry 121, N-(2-{5-[3-chloro-4-(methyloxy)phenyl]-3-pyridin-4-yl-1H-1,2,4-triazol-1-yl}ethyl)-N-cyclopentyl-N′-[2-(ethyloxy)phenyl]urea]
≥ 10 µM	COc1ccc(-c2nc(-c3ccncc3)nn2CCN(C(=O)Nc2ccccc2C(F)(F)F)C2CCCC2)cc1Cl [Entry 122, N-(2-{5-[3-chloro-4-(methyloxy)phenyl]-3-pyridin-4-yl-1H-1,2,4-triazol-1-yl}ethyl)-N-cyclopentyl-N′-[2-(trifluoromethyl)phenyl]urea]
≥ 10 µM	COc1ccc(-c2nc(-c3ccncc3)nn2CCN(C(=O)Nc2c(C)cccc2C)C2CCCC2)cc1Cl [Entry 123, N-(2-{5-[3-chloro-4-(methyloxy)phenyl]-3-pyridin-4-yl-1H-1,2,4-triazol-1-yl}ethyl)-N-cyclopentyl-N′-(2,6-dimethylphenyl)urea]
≥ 10 µM	COc1ccc(-c2nc(-c3ccncc3)nn2CCN(C(=O)Nc2ccc(C(F)(F)F)cc2)C2CCCC2)cc1Cl [Entry 124, N-(2-{5-[3-chloro-4-(methyloxy)phenyl]-3-pyridin-4-yl-1H-1,2,4-triazol-1-yl}ethyl)-N-cyclopentyl-N′-[4-(trifluoromethyl)phenyl]urea]
1 to 10 µM	COc1ccc(-c2nc(-c3ccncc3)nn2CCN(C(=O)N[C@@H](C)c2ccccc2)C2CCCC2)cc1Cl [Entry 125, N-(2-{5-[3-chloro-4-(methyloxy)phenyl]-3-pyridin-4-yl-1H-1,2,4-triazol-1-yl}ethyl)-N-cyclopentyl-N′-[(1S)-1-phenylethyl]urea]
≥ 10 µM	COc1ccc(-c2nc(-c3ccncc3)nn2CCN(C(=O)Nc2cc(Cl)c(Cl)cc2Cl)C2CCCC2)cc1Cl [Entry 126, N-(2-{5-[3-chloro-4-(methyloxy)phenyl]-3-pyridin-4-yl-1H-1,2,4-triazol-1-yl}ethyl)-N-cyclopentyl-N′-(2,4,5-trichlorophenyl)urea]
1 to 10 µM	COc1ccc(-c2nc(-c3ccncc3)nn2CCN(C(=O)Nc2cccc(C)c2C)C2CCCC2)cc1Cl [Entry 127, N-(2-{5-[3-chloro-4-(methyloxy)phenyl]-3-pyridin-4-yl-1H-1,2,4-triazol-1-yl}ethyl)-N-cyclopentyl-N′-(2,3-dimethylphenyl)urea]
≥ 10 µM	COc1ccc(-c2nc(-c3ccncc3)nn2CCN(C(=O)Nc2ccc(C)cc2C)C2CCCC2)cc1Cl [Entry 128, N-(2-{5-[3-chloro-4-(methyloxy)phenyl]-3-pyridin-4-yl-1H-1,2,4-triazol-1-yl}ethyl)-N-cyclopentyl-N′-(2,4-dimethylphenyl)urea]
≥ 10 µM	COc1ccc(-c2nc(-c3ccncc3)nn2CCN(C(=O)Nc2ccc(C)c(Cl)c2)C2CCCC2)cc1Cl [Entry 129, N-(2-{5-[3-chloro-4-(methyloxy)phenyl]-3-pyridin-4-yl-1H-1,2,4-triazol-1-yl}ethyl)-N′-(3-chloro-4-methylphenyl)-N-cyclopentylurea]
1 to 10 µM	COc1ccc(-c2nc(-c3ccncc3)nn2CCN(C(=O)Nc2cccc(F)c2)C2CCCC2)cc1Cl [Entry 134, N-(2-{5-[3-chloro-4-(methyloxy)phenyl]-3-pyridin-4-yl-1H-1,2,4-triazol-1-yl}ethyl)-N-cyclopentyl-N′-(3-fluorophenyl)urea]
1 to 10 µM	COc1ccc(NC(=O)N(CCn2nc(-c3ccncc3)nc2-c2ccc(OC)c(Cl)c2)C2CCCC2)c(C)c1 [Entry 138, N-(2-{5-[3-chloro-4-(methyloxy)phenyl]-3-pyridin-4-yl-1H-1,2,4-triazol-1-yl}ethyl)-N-cyclopentyl-N′-[2-methyl-4-(methyloxy)phenyl]urea]
1 to 10 µM	COc1ccc(-c2nc(-c3ccncc3)nn2CCN(C(=O)Nc2cc(C)ccc2C)C2CCCC2)cc1Cl [Entry 139, N-(2-{5-[3-chloro-4-(methyloxy)phenyl]-3-pyridin-4-yl-1H-1,2,4-triazol-1-yl}ethyl)-N-cyclopentyl-N′-(2,5-dimethylphenyl)urea]
